What was measured:
[1] = Partition coefficient, log P of the compound; assay type: physicochemical; conditions: octanol/water
[2] = test system: Bacillus subtilis; assay: Antibacterial activity against Bacillus subtilis at 500 ug/0.1 mL after 24 hr by agar diffusion method; assay type: functional
[3] = test system: Staphylococcus aureus; assay: Antibacterial activity against Staphylococcus aureus at 500 ug/0.1 mL after 24 hr by agar diffusion method; assay type: functional
[4] = test system: Pseudomonas aeruginosa; assay: Antibacterial activity against Pseudomonas aeruginosa at 500 ug/0.1 mL after 24 hr by agar diffusion method; assay type: functional
[5] = test system: Escherichia coli; assay: Antibacterial activity against Escherichia coli at 500 ug/0.1 mL after 24 hr by agar diffusion method; assay type: functional
[6] = test system: Bacillus subtilis; assay: Antibacterial activity against Bacillus subtilis at 10 ug/0.1 mL after 24 hr by agar diffusion method; assay type: functional
[7] = test system: Staphylococcus aureus; assay: Antibacterial activity against Staphylococcus aureus at 10 ug/0.1 mL after 24 hr by agar diffusion method; assay type: functional
[8] = test system: Escherichia coli; assay: Antibacterial activity against Escherichia coli at 10 ug/0.1 mL after 24 hr by agar diffusion method; assay type: functional
[9] = test system: Pseudomonas aeruginosa; assay: Antibacterial activity against Pseudomonas aeruginosa at 10 ug/0.1 mL after 24 hr by agar diffusion method; assay type: functional

SMILES: Cc1cc(=O)[nH]c2cc(NC(=O)c3c(Br)cccc3Br)ccc12
- logP [1]: 1.75
- inhibition zone (IZ) [2]: 12 mm
- inhibition zone (IZ) [3]: 12 mm

SMILES: Cc1cc(=O)[nH]c2cc(NC(=O)c3ccccc3Cl)ccc12
- logP [1]: 1.55
- inhibition zone (IZ) [2]: 10.5 mm

SMILES: Cc1cc(=O)[nH]c2cc(NC(=O)c3c([N+](=O)[O-])cccc3[N+](=O)[O-])ccc12
- logP [1]: 1.82
- inhibition zone (IZ) [2]: 12.5 mm
- inhibition zone (IZ) [4]: 10 mm
- inhibition zone (IZ) [5]: 13 mm

SMILES: Cc1cc(=O)[nH]c2cc(NC(=O)c3ccccc3)ccc12
- logP [1]: 1.66
- inhibition zone (IZ) [2]: 12 mm
- inhibition zone (IZ) [4]: 11 mm

SMILES: COc1ccc(C(=O)Nc2ccc3c(C)cc(=O)[nH]c3c2)cc1OC
- logP [1]: 1.46
- inhibition zone (IZ) [2]: 13 mm
- inhibition zone (IZ) [3]: 16 mm
- inhibition zone (IZ) [5]: 15 mm

SMILES: Cc1cc(=O)[nH]c2cc(NC(=O)c3ccc(Cl)cc3)ccc12
- logP [1]: 1.69
- inhibition zone (IZ) [5]: 9 mm

SMILES: Cc1cc(=O)[nH]c2cc(NC(=O)c3ccc([N+](=O)[O-])cc3)ccc12
- logP [1]: 1.63
- inhibition zone (IZ) [4]: 9 mm
- inhibition zone (IZ) [5]: 11 mm

SMILES: Cc1cc(=O)[nH]c2cc(NC(=O)/C=C/c3ccccc3)ccc12
- logP [1]: 1.69
- inhibition zone (IZ) [2]: 11 mm
- inhibition zone (IZ) [5]: 12 mm

SMILES: Cc1ccccc1C(=O)Nc1ccc2c(C)cc(=O)[nH]c2c1
- logP [1]: 1.71
- inhibition zone (IZ) [2]: 12 mm
- inhibition zone (IZ) [3]: 10 mm

SMILES: Cc1cc(=O)[nH]c2cc(NC(=O)c3ccc(Cl)cc3Cl)ccc12
- logP [1]: 1.83
- inhibition zone (IZ) [5]: 9 mm

SMILES: Cc1cc(=O)[nH]c2cc(NC(=O)c3cccc(Cl)c3)ccc12
- logP [1]: 1.69

SMILES: Cc1cc(=O)[nH]c2cc(NC(=O)c3ccc(F)cc3)ccc12
- logP [1]: 1.61
- inhibition zone (IZ) [2]: 12 mm
- inhibition zone (IZ) [3]: 11 mm

SMILES: Cc1ccc(C(=O)Nc2ccc3c(C)cc(=O)[nH]c3c2)cc1
- logP [1]: 1.67
- inhibition zone (IZ) [4]: 10 mm
- inhibition zone (IZ) [5]: 13 mm

SMILES: CC1(C)S[C@@H]2[C@H](NC(=O)[C@H](N)c3ccc(O)cc3)C(=O)N2[C@H]1C(=O)O [AMOXICILLIN]
- inhibition zone (IZ) [6]: 34 mm
- inhibition zone (IZ) [7]: 30 mm
- inhibition zone (IZ) [8]: 23 mm
- inhibition zone (IZ) [9]: 26 mm

SMILES: Cc1cc(=O)[nH]c2cc(NC(=O)c3cccc4ccccc34)ccc12
- logP [1]: 1.72
- inhibition zone (IZ) [2]: 13 mm
- inhibition zone (IZ) [5]: 11 mm

SMILES: Cc1cc(O)nc2cc(N)ccc12
- logP [1]: 0.793
- inhibition zone (IZ) [2]: 10 mm
- inhibition zone (IZ) [3]: 11 mm
- inhibition zone (IZ) [4]: 11 mm
- inhibition zone (IZ) [5]: 10 mm

SMILES: CC(=O)Nc1ccc2c(C)cc(=O)[nH]c2c1
- logP [1]: 0.995
- inhibition zone (IZ) [2]: 13 mm
- inhibition zone (IZ) [3]: 11 mm
